Results reported in ChEMBL document CHEMBL3797155, “The 5-aromatic hydantoin-3-acetate derivatives as inhibitors of the tumour multidrug resistance efflux pump P-glycoprotein (ABCB1): Synthesis, crystallographic and biological studies” (Bioorg Med Chem, 2016).

Tests used:
Type in all cases: cell-based
[1] = biological target: T1, ATP-dependent translocase ABCB1 (Homo sapiens, UniProt P08183); test: Inhibition of human MDR1 expressed in mouse L5178 cells assessed as rhodamine-123 accumulation measured as fluorescence activity ratio at 20 uM after 20 mins by flow cytometry relative to control; conditions: l5178, 20 min
T1 sequence (P08183 whole entry): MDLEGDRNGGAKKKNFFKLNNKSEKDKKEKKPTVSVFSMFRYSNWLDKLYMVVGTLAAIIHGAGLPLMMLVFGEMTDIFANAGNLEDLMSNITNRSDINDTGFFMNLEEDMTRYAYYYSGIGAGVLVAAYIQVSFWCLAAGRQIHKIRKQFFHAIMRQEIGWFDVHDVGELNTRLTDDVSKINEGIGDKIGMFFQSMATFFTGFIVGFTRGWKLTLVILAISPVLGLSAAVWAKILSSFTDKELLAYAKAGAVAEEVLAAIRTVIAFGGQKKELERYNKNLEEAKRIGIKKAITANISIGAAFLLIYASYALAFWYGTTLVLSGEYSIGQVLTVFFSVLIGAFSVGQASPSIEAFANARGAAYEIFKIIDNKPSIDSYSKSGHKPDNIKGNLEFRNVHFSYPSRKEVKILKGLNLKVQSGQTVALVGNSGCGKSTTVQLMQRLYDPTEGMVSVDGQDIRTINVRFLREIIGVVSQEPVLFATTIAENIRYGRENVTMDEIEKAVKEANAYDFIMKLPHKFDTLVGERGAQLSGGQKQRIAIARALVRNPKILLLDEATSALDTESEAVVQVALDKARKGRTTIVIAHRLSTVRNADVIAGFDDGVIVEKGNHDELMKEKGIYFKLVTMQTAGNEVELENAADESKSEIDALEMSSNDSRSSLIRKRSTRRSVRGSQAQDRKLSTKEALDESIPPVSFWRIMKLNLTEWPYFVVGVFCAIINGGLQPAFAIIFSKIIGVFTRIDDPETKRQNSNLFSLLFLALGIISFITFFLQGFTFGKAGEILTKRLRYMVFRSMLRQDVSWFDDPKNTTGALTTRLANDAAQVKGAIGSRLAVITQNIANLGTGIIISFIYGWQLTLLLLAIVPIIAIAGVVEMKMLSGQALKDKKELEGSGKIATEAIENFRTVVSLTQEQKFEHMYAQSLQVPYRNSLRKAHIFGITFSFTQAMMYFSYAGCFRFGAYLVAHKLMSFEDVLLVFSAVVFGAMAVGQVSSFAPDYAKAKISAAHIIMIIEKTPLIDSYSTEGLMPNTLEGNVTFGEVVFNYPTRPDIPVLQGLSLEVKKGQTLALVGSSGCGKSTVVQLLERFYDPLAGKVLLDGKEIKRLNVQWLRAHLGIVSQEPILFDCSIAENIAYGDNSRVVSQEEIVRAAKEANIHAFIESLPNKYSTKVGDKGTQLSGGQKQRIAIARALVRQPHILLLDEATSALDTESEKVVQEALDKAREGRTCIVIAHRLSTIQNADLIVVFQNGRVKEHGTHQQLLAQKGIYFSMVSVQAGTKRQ

[2] = biological target: T1, ATP-dependent translocase ABCB1; test: Inhibition of human MDR1 expressed in mouse L5178 cells assessed as rhodamine-123 accumulation measured as fluorescence activity ratio at 2 uM after 20 mins by flow cytometry relative to control; conditions: l5178, 20 min
[3] = Cytotoxicity against sensitive mouse L5178 cells after 24 hrs by MTT assay; conditions: l5178, 24 h
[4] = Cytotoxicity against multidrug resistant mouse L5178 cells after 24 hrs by MTT assay; conditions: l5178, 24 h

Ratio [1] | Ratio [2] | Compound | Activity [3] [µM] | Activity [4] [µM]
90.43 | 72.64 | COC(=O)CN1C(=O)N(CC(O)CN2CCN(c3ccccc3)CC2)C(c2ccccc2)(c2ccccc2)C1=O (centres undefined) | 33 | 67
0.86 | 0.84 | COc1ccccc1N1CCN(CC(O)CN2C(=O)N(CC(=O)O)C(=O)C2(c2ccccc2)c2ccccc2)CC1 (centres undefined) | > 100 | > 100
116.27 | 89.34 | COC(=O)CN1C(=O)N(CCCN2CCN(c3ccccc3)CC2)C(c2ccccc2)(c2ccccc2)C1=O | 40 | > 100
99.82 | 77.15 | COC(=O)CN1C(=O)N(CCCCN2CCN(c3ccccc3)CC2)C(c2ccccc2)(c2ccccc2)C1=O | 13 | 26
2.04 | 1 | COc1ccccc1N1CCN(CCCCN2C(=O)N(CC(=O)O)C(=O)C2(c2ccccc2)c2ccccc2)CC1 | > 100 | > 100
72.04 | 35.38 | COC(=O)CN1C(=O)N(CCCCN2CCN(c3ccccc3F)CC2)C2(C1=O)c1ccccc1-c1ccccc12 | 58 | 84
0.69 | 0.68 | O=C(O)CN1C(=O)N(CCCCN2CCN(C(=O)c3ccco3)CC2)C2(C1=O)c1ccccc1-c1ccccc12 | > 100 | > 100
70.19 | 21.61 | COC(=O)CN1C(=O)N(CCCCN2CCN(c3ccccc3)CC2)C2(C1=O)c1ccccc1-c1ccccc12 | 53 | > 100
98.11 | 132.85 | COC(=O)CN1C(=O)N(CCCCN2CCN(c3cccc(Cl)c3Cl)CC2)C(c2ccccc2)(c2ccccc2)C1=O | 18 | 40
24.89 | 1.86 | COC(=O)CN1C(=O)N(CCCCN2CCN(C(=O)c3ccco3)CC2)C2(C1=O)c1ccccc1-c1ccccc12 | 59 | 63
71.11 | 19.4 | COC(=O)CN1C(=O)N(CCCCN2CCN(c3ccc(F)cc3)CC2)C2(C1=O)c1ccccc1-c1ccccc12 | 40 | 56
99.09 | 102.74 | COC(=O)CN1C(=O)N(CCCCN2CCN(c3ccccc3F)CC2)C(c2ccccc2)(c2ccccc2)C1=O | > 100 | > 100
17.59 |  | COc1ccc(CCN(C)CCCC(C#N)(c2ccc(OC)c(OC)c2)C(C)C)cc1OC (centres undefined) [VERAPAMIL] |  | 
